“Also recorded” adds a separate entry of the source.
Legend:
HEK293 cells [1] = experiment: Cell death assay after MMS treatment (FACS, propidium iodide); type: cell-based; conditions: for effect on Nampt-mediated cell protection/survival against MMS: HEK293 cells stably overexpressing Nampt, MMS treatment, sirtinol 100 μM
Protocol: Human embryonic kidney (HEK293) and human fibrosarcoma HT1080 cell lines were obtained from ATCC and grown in complete DMEM medium with 10% FBS and 100 μg/ml penicillin/streptomycin. To generate Nampt overexpression or empty vector stable clones, hNAMPT/pcDNA or pcDNA empty vector were transfected into HEK293 or HT1080 cells and selected with 0.5-1.0 mg/ml geneticin. To generate Nampt knockdown cells, siRNA/NAMPT/pMSCV or pMSCV empty vector were transfected into HT1080 cells, and stable clones were selected with 500 ng/ml puromycin. Primary neonatal rat cardiomyocytes were prepared as described previously (Matsui et al., 1999). Isolated cardiomyocytes were grown in complete medium (RPMI 1640, 5% fetal calf serum, 10% horse serum) to 80% confluence before cells were subjected to hypoxia and/or serum starvation. For hypoxia, medium was changed to RPMI 1640 with or without serum saturated with 95% N2/5% CO2 and then cells were placed in a 37° C. airtight box saturated with 95% N2/5% CO2 for 18 hours. O2 concentrations were <0.1% (Ohmeda oxygen monitor, type 5120). To serum starve HT1080, cells were grown in DMEM medium containing no serum. Cells were harvested after 26 h of serum starvation and Nampt expression was analyzed by Western blotting.
(§1) HEK293 and HT1080 cells at less than 85% confluency were treated with MMS (1.2 mM) for 6-8.5 h and 8-17 h, respectively. Transiently transfected cells were washed 3 times with PBS to remove residual transfection reagents before treating with MMS. HEK293 cells and HT1080 cells were exposed to etoposide for 72 h or 46 h, at 120 or 40 μM, respectively. HT1080 cells were exposed to camptothecin at 14 μM for 23 h. After drug treatments, cells were harvested by trypsinization, pelleted by centrifugation and resuspended in PBS containing 3% FBS. Cell death was analyzed by FACS using propidium iodide (PI) staining. Cells transiently-transfected with mNAMPT/MSCV, SIRT1-7 siRNA, Nmnat-3, or hMFT siRNA oligos and co-transfected with FAM-labeled scrambled siRNA oligos, percent cell death was determined by as the proportion of PUGFP or PIFAM positive cells versus the total number of cells with green fluorescence.

HEK293 cells [2] = experiment: Total cellular NAD+ by HPLC-MALDI-MS after MMS; type: cell-based, human; conditions: 1.2 mM MMS, 2 and 4 h, irrespective of Nampt levels
Protocol: as §1
NAD^+ was determined by as described previously (Sauve and Schramm, 2003), with the following modifications. HEK293 or HT1080 cells were harvested by trypsinization and counted by haemocytometer. NAD^+ was extracted from whole cells or mitochondrial pellets by adding 10% perchloric acid and sonicating for 5 min on ice. […] The volume of mitochondrial pellets was calculated by considering the density of the mitochondria pellets to be 1.0 μL/mg. […]

[3] = system: mitochondria from fresh rat livers; experiment: NAD+ levels in isolated liver mitochondria by HPLC-MALDI-MS; conditions: for change of mitochondrial NAD+ levels (in words): FK866 10 nM and/or MMS 1:1000, 30 min at 37° C.
Protocol: Unless otherwise stated, fractionation of cultured cells was performed using a differential centrifugation and sucrose gradient procedure with slight modifications (Schwer et al., 2002). For drug treatment of mitochondria, fresh mitochondria were obtained from livers excised from fed young male rats. Half of the liver homogenate was used for mitochondrial isolation using a commercially available kit as described by manufacturer's instructions, designated Protocol 1 (Pierce Mitochondrial Isolation kit, Rockford, Ill.). The other half of the original homogenate was subjected to a differential centrifugation protocol to isolate mitochondria (Protocol 2). Mitochondria (500 μl) were added to a 48-well plate and treated with methylmethane sulfonate (MMS) at 1:1000 dilution and/or FK866 (10 nM) for 30 min at 37° C. Suspensions were spun down for 1 min at 14,000 rpm at 4° C. and pellets were stored at −80° C. prior to NAD^+ analysis by HPLC-MALDI-MS. Detailed protocols are described in Supplemental Information.
NAD^+ was determined by as described previously (Sauve and Schramm, 2003), with the following modifications. HEK293 or HT1080 cells were harvested by trypsinization and counted by haemocytometer. NAD^+ was extracted from whole cells or mitochondrial pellets by adding 10% perchloric acid and sonicating for 5 min on ice. The reference standard ^18O-NAD^+ (typically […]) was then added to the sample. After mixing well, samples were centrifuged for 3 min then neutralized with NaOH. NAD^+ in the supernatant (100 μL sample) was separated from other cellular components by HPLC. NAD^+ peaks were collected according to the standards' retention time and dried with a lyophilizor. […] The volume of mitochondrial pellets was calculated by considering the density of the mitochondria pellets to be 1.0 μL/mg. Total cellular NAD^+ concentrations were calculated by dividing the quantity of NAD^+ per cell by the mean cell volume (MCV) as measured by a Coulter counter, which for HT1080 was […] and for HEK293 was […]. […]

GLUT4 = GLUT4 protein expression in SIRT3-expressing C2C12 myotubes (Western blot); type: cell-based, murine; conditions: 40 μM, 3-hour treatment
Protocol: (§2) C2C12 myocytes and BOSC23 cells were cultured in Dulbecco's modified Eagle's medium containing 10% bovine calf serum. For C2C12 differentiation, at confluence, cells were incubated in Dulbecco's modified Eagle's medium with 2% horse serum (Hyclone, Logan, Utah) for three days. Inhibition of AMPK in selected studies was achieved by adding compound C (6-[4-(2-Piperidin-1-yl-ethoxy)-phenyl)]-3-pyridin-4-yl-pyrrazolo[1,5-a]-pyrimidine, Merck) (31) to the media for 3 hours at a final concentration of 40 μM. […]

AMPK = AMPK phosphorylation in C2C12 myotubes (Western blot); type: cell-based, murine; conditions: 40 μM, 3-hour treatment; vector- and SIRT3-transfected C2C12 myotubes
Protocol: as §2

## CC(NC(=O)c1ccccc1/N=C/c1c(O)ccc2ccccc12)c1ccccc1 (stereo not shown) [sirtinol]
HEK293 cells [1]
  effect on Nampt-mediated cell protection/survival against MMS: did block the ability of Nampt overexpression to protect cells

## COS(C)(=O)=O [MMS, methylmethane sulfonate]
HEK293 cells [1]; 1.2 mM MMS, vector control cells
  cell death caused by MMS treatment: death of about half the vector control cells
HEK293 cells [2]
  total NAD+ concentration after MMS treatment: < 100 µM
[3]
  change of mitochondrial NAD+ levels (in words): reduced
[3]; MMS 1:1000 dilution, 30 min at 37° C.
  reduction of mitochondrial NAD+ levels: ~2 fold

## c1cc(-c2cnn3cc(-c4ccc(OCCN5CCCCC5)cc4)cnc23)ccn1 [compound C]
GLUT4
  ability of SIRT3 to increase GLUT4 protein expression: completely abolished
AMPK
  AMPK phosphorylation: decreased AMPK phosphorylation

## O=C(/C=C/c1cccnc1)NCCCCC1CCN(C(=O)c2ccccc2)CC1 [FK866]
HEK293 cells [1]
  effect on Nampt-mediated cell protection/survival against MMS: prevented cell protection by Nampt overexpression; also recorded: the effect is blocked
[3]
  change of mitochondrial NAD+ levels (in words): even larger decreases in mitochondrial NAD+ levels; also recorded: reduced

## O=C1NCCc2c(OCCCCN3CCCCC3)cccc21 [DPQ, 3,4-dihydro-5-[4-(1-piperidinyl)butoxy]-1(2H)-isoquinolinone]
HEK293 cells [1]; HEK293 cells, MMS, 30 μM DPQ
  extent of MMS-induced cell death: greatly reduced; also recorded: Attenuated
